Like-named read-outs stand apart in the source and are kept apart here.
What was measured:
[1] = tested on: SD rats; details: tail vein, ratio of minimum lethal dose to minimum effective anesthetic dose
Protocol: SD rats were used, with a single intravenous injection via the tail vein (administration rate of 0.02 ml/s and administration volume of 0.5-1.0 ml per 100 g body weight) in the experiment. The initial dose of the test compound started at 4ED50, and the actual administration dose was calculated based on the body weight measured before the test for each animal. The increase or decrease in subsequent doses was determined based on the results of the experimental animals (whether death occurred). The dose at which death first occurred was determined as the minimum lethal dose. […] The approximate therapeutic index is further classified as: A when the index is ≥5; B when the index is <5 but ≥3; and C when the index is <3.

[2] = Solubility determination of salt forms of the compounds (10 mg, ultrapure water added incrementally); type: physicochemical; details: 10 mg of the salt form, 25° C.±2° C., class = water volume used
Protocol: A weighed amount of 10 mg of the compound's salt form was placed in a vessel at 25° C.±2° C. Ultrapure water was added incrementally. The mixture was vigorously shaken for 30 seconds every 5 minutes and observed for 30 minutes. When no undissolved particles or droplets remained in the test system, the water solubility of the salt form was recorded according to the following criteria: • A: Water volume used is less than 0.1 mL; • B: Water volume used is greater than or equal to 0.1 mL and less than 1.0 mL; • C: Water volume used is greater than or equal to 1.0 mL and less than 5.0 mL.

[3] = tested on: SD rats; test: Anesthetic effect (minimum effective anesthetic dose, LORR) after single tail vein injection in rats; type: in vivo
Protocol: The dose at which the LORR first occur was determined as the minimum effective anesthetic dose. The minimum effective anesthetic dose is further classified as: A≤5 mg/kg; 5 mg/kg<B≤10 mg/kg; 10 mg/kg<C≤20 mg/kg; D>20 mg/kg in this invention.
The Up and down method was used to determine the ED50 of the compound causing the LORR. […] After observing five consecutive consistent directional changes in LORR occurrence and recovery, the ED50 was calculated using the Dixon-Mood formula. After determining the ED50, the onset time, duration of anesthesia, and emergence time of anesthesia were determined at an injection dose of 2ED50.
In the above experiments, in addition to recording the dose at which the LORR occurred, the onset time and emergence time of anesthesia, the duration of the LORR, and the duration of sedative effects could also be recorded. Meanwhile, circulatory effects experiments can be added to observe the effects of the compound on circulation and respiration in rats.

[4] = well-known to those skilled in the art; cited from earlier work
[5] = type: physicochemical
Protocol: Compound A6S (1 eq) was dissolved in Et2O (2 mL) at room temperature, and the corresponding acid (2 eq) was dissolved in Et2O (NO.1-NO.4) or MeOH (NO.5-NO.10). The above acid solution was slowly added to the reaction system containing Compound A6S using a syringe. NO.1-NO.3 was mixed and stirred at room temperature for 1 hour, and NO.5-NO.10 was mixed and stirred at room temperature for 16 hours. The mixture was filtered under suction to get the solid, then the solid was washed with Et2O, and dried to obtain the corresponding salt form of Compound A6S. Then, the solubility of each salt form was tested in ultrapure water.

[6] = intravenous injection; compared to propofol; cited from earlier work
[7] = vehicle Pure water, sulfate salts
[8] = vehicle DMSO: A3 31.8%, A14 66.7%, A17 79.2%, A21S 66.7%, A23 60%, A24 82.8%
[9] = vehicle DMSO: A3 31.8%, A14 66.7%, A17 79.2%, A21S 66.7%, A23 60%, A24 82.8%, A25S 70%

SMILES	Solubility [2]	Minimal effective anesthetic dose [3, 7]	Onset time [3, 7]	Righting Reflex Duration [3, 7]	Sedation Duration [3, 7]	Minimal effective anesthetic dose [3, 9]	further results
COC(=O)CN1CC2CCC(C1)N2c1cc(C(C)C)c(O)c([C@H](C)C2CC2)c1 [Compound A12]	A (A: Water volume used is less than 0.1 mL)	C (10 mg/kg<C≤20 mg/kg)	0.50 to 0.77 min	1.22 to 7.40 min	9.90 to 34.25 min		Approximate therapeutic index ([1]; vehicle Pure water): A (A when the index is ≥5)
CC(C)c1cccc(C(C)C)c1O [Propofol, reference compound]							Approximate therapeutic index ([1]; vehicle Lipid emulsion): B (B when the index is <5 but ≥3); water solubility [4]: insoluble in water
CC(C)c1cc(N2CCN(CC(=O)OC(C)(C)C)CC2)cc([C@H](C)C2CC2)c1OCC(=O)OC(C)(C)C [Compound A14]						C (10 mg/kg<C≤20 mg/kg)	Onset time [3, 8]: 0.18 to 1.63 min; Righting Reflex Duration [3, 8]: 1.95 to 11.67 min; Sedation Duration [3, 8]: 19.40-28.45- min
CC(C)c1cc(N2CCN(CC(=O)OC(C)(C)C)CC2)cc([C@H](C)C2CC2)c1O [Compound A13]	A (A: Water volume used is less than 0.1 mL)						
COC(=O)[C@H](C)N1CCN(c2cc(C(C)C)c(O)c(C(C)C)c2)CC1 [Compound A20S]		B (5 mg/kg<B≤10 mg/kg)	0.18 to 0.43 min	2.18 to 7.48 min	15.75 to 23.72 min		
COC(=O)[C@H](C)N1CCN(c2cc(C(C)C)c(O)c([C@H](C)C3CC3)c2)CC1 [Compound A6S]		B (5 mg/kg<B≤10 mg/kg)	0.47 to 0.73 min	1.08 to 5.67 min	7.93 to 15.12 min		Salt formation (Yes/No) ([5]; A6S with Benzenesulfonic acid (NO.6)): Yes; Salt formation (Yes/No) ([5]; A6S with Hydrochloric acid (NO.1)): Yes; Salt formation (Yes/No) ([5]; A6S with Maleic acid (NO.8)): Yes; Salt formation (Yes/No) ([5]; A6S with Methanesulfonic acid (NO.3)): Yes; Salt formation (Yes/No) ([5]; A6S with Oxalic acid dihydrate (NO.7)): Yes; Salt formation (Yes/No) ([5]; A6S with Phosphoric acid (NO.4)): Yes; Salt formation (Yes/No) ([5]; A6S with Sulfuric acid (NO.2)): Yes; Salt formation (Yes/No) ([5]; A6S with p-Toluenesulfonic acid hydrate (NO.5)): Yes
COC(=O)CC(=O)N1CCN(c2cc(C(C)C)c(O)c([C@H](C)C3CC3)c2)CC1 [Compound A3]	C (C: Water volume used is greater than or equal to 1.0 mL and less than 5.0 mL)					C (10 mg/kg<C≤20 mg/kg)	Approximate therapeutic index ([1]; vehicle DMSO: A3 31.8%, A17 79.2%): B (B when the index is <5 but ≥3); Onset time [3, 8]: 0.37 to 0.52 min; Righting Reflex Duration [3, 8]: 1.02 to 2.08 min; Sedation Duration [3, 8]: 6.65 to 8.50 min
COC(=O)C(C1CC1)N1CCN(c2cc(C(C)C)c(O)c([C@H](C)C3CC3)c2)CC1 (stereo partly shown) [Compound A24]	C (C: Water volume used is greater than or equal to 1.0 mL and less than 5.0 mL)					B (5 mg/kg<B≤10 mg/kg)	Onset time [3, 8]: 0.17 to 0.18 min; Righting Reflex Duration [3, 8]: 5.53 to 9.67 min; Sedation Duration [3, 8]: 19.33 to 38.80 min
CC(C)c1cc(N2CCN([C@@H](C)C(=O)OC(C)(C)C)CC2)cc(C(C)C)c1O [Compound A21S]						B (5 mg/kg<B≤10 mg/kg)	Onset time [3, 8]: 0.25 to 0.42 min; Righting Reflex Duration [3, 8]: 12.02 to 22.80 min; Sedation Duration [3, 8]: 28.72 to 56.33 min
COC(=O)C(C(C)C)N1CCN(c2cc(C(C)C)c(O)c([C@H](C)C3CC3)c2)CC1 (stereo partly shown) [Compound A23]	C (C: Water volume used is greater than or equal to 1.0 mL and less than 5.0 mL)					B (5 mg/kg<B≤10 mg/kg)	Onset time [3, 8]: 0.20 to 0.22 min; Righting Reflex Duration [3, 8]: 4.93 to 15.08 min; Sedation Duration [3, 8]: 30.48 to 39.13 min
CC(C)c1cc(N2CCN([C@@H](C)C(=O)OC(C)(C)C)CC2)cc([C@H](C)C2CC2)c1O [Compound A19S]		B (5 mg/kg<B≤10 mg/kg)	0.70 to 0.98 min	2.21 to 5.57 min	14.55 to 21.30 min		
CC(C)c1cc(N2CCN(CC(=O)OC(C)(C)C)C3(CC3)C2)cc([C@H](C)C2CC2)c1O [Compound A18]		B (5 mg/kg<B≤10 mg/kg)	0.23 to 0.98 min	3.02 to 19.25 min	16.47 to 35.57 min		
CC(C)c1cccc([C@H](C)C2CC2)c1O [ciprofol]							water solubility [4]: insoluble in water
CC(C)c1cccc(C(C)C)c1OCOP(=O)(O)O [fospropofol disodium, Fospropofol disodium]							Onset time [6]: up to 2.9 minutes
CC(C)c1cc(N2CCN(CC(=O)O)CC2)cc([C@H](C)C2CC2)c1O [Compound A15]	A (A: Water volume used is less than 0.1 mL)	D (D>20 mg/kg)					
COC(=O)CN1CCN(c2cc(C(C)C)c(O)c([C@H](C)C3CC3)c2)CC12CC2 [Compound A11]		C (10 mg/kg<C≤20 mg/kg)	0.12 to 0.27 min	0.68 to 3.12 min	12.05 to 14.53 min		
COC(=O)[C@H](C)[N+]1(C)CCN(c2cc(C(C)C)c(O)c([C@H](C)C3CC3)c2)CC1 [Compound A25S]						D (D>20 mg/kg)	
CCOC(=O)C(C1CC1)N1CCN(c2cc(C(C)C)c(O)c([C@H](C)C3CC3)c2)CC1 (stereo partly shown) [Compound A26]	A (A: Water volume used is less than 0.1 mL)	A (A≤5 mg/kg)	0.42 to 0.43 min	7.03 to 10.48 min	14.75 to 21.28 min		
CC[C@@H](C(=O)OC)N1CCN(c2cc(C(C)C)c(O)c([C@H](C)C3CC3)c2)CC1 [Compound A22S]	A (A: Water volume used is less than 0.1 mL)						
COC(=O)[C@@H](C)N1CCN(c2cc(C(C)C)c(O)c([C@H](C)C3CC3)c2)CC1 [Compound A6R]		A (A≤5 mg/kg)	0.15 to 0.70 min	1.72 to 3.82 min	7.02 to 14.77 min		
CC(C)c1cc(N2CCN(CC(=O)OC(C)(C)C)CC2)cc(C(C)C)c1O [Compound A17]						A (A≤5 mg/kg)	Onset time [3, 8]: 0.15 to 0.63 min; Righting Reflex Duration [3, 8]: 3.67 to 9.38 min; Sedation Duration [3, 8]: 24.42 to 35.32 min
CC(C)c1cc(N2CCN(CCO)CC2)cc([C@H](C)C2CC2)c1O [Compound A7]	B (B: Water volume used is greater than or equal to 0.1 mL and less than 1.0 mL)						
CC(C)c1cc(N2CCN(CC(=O)OC3COC3)CC2)cc([C@H](C)C2CC2)c1O [Compound A8]	B (B: Water volume used is greater than or equal to 0.1 mL and less than 1.0 mL)						

From US20260137676A1 (priority 2022, published 2026)
